From patent US8017656B2, “Organic sulfur compounds and use thereof” (Sumitomo Chemical Company, Limited, priority 2005, dated 2011)
Where two headings read alike, the source gives them in different places.

Columns and labels:
Assay type in all cases: in vivo
Musca domestica = assay: Test Example 2: filter paper/sucrose bait test against housefly imagoes; settings: read-out: rate of dead pests
Protocol: (§1) On the bottom of a polyethylene cup having a diameter of 5.5 cm, a filter paper having the same diameter was laid, and 0.7 ml of the above test solution was added dropwise on the filter paper, followed by putting 30 mg of sucrose on it uniformly as a bait. Ten female Musca domestica imagoes were set free in the polyethylene cup and covered it with a lid. After 24 hours, the number of surviving and dead Musca domestica was examined and the rate of dead pests was calculated.

Culex pipiens pallens = assay: Test Example 4: mosquito larvae test in treated water; settings: 24 h, read-out: rate of dead pests
Protocol: 0.7 ml of above test solution was added to 100 ml of ion exchanged water (active ingredient concentration: 3.5 ppm). Twenty last-instar larvae of Culex pipiens pallens were set free in the solution. After one day, the number of surviving and dead Culex pipiens pallens was examined and the rate of dead pests was calculated.

Blattella germanica = assay: Test Example 3: filter paper/sucrose bait test against German cockroach imagoes; settings: Blattella germanica, 144 h, read-out: rate of dead pests
Protocol: as §1, with “Two male Blattella germanica” for “Ten female Musca domestica”, “6 days,” for “24 hours,”, “Blattella germanica” for “Musca domestica”

[1] = 500 ppm test solution, 0.7 ml on filter paper with 30 mg sucrose, ten female imagoes, after 24 hours
[2] = active ingredient concentration 3.5 ppm in water, twenty last-instar larvae, after one day
[3] = 500 ppm test solution, 0.7 ml on filter paper with 30 mg sucrose, two male imagoes, after 6 days

| SMILES | pest or weed control at 500 ppm (Musca domestica; [1]) [%] | pest or weed control at 3.5 ppm (Culex pipiens pallens; [2]) [%] | pest or weed control at 500 ppm (Blattella germanica; [3]) [%] | pest or weed control at 500 ppm (Musca domestica; 24 h) [%] | pest or weed control at 3.5 ppm (Culex pipiens pallens) [%] | pest or weed control at 500 ppm (Blattella germanica) [%] |
| --- | --- | --- | --- | --- | --- | --- |
| COC(=O)C(F)(CCC(F)(F)C(F)(F)F)S(=O)(=O)CCC(F)(F)F (stereo not drawn) [(29)] | ≥ 70 | ≥ 90 | 100 | – | – | – |
| CN(C)C(=O)C(CCC(F)(F)C(F)(F)F)S(=O)(=O)CCC(F)(F)F (stereo not drawn) [(33)] | ≥ 70 | ≥ 90 | 100 | – | – | – |
| CCOC(=O)C(C)(CCC(F)(F)C(F)(F)F)S(=O)(=O)CCC(F)(F)F (stereo not drawn) [(46)] | ≥ 70 | ≥ 90 | 100 | – | – | – |
| NC(=O)C(Cl)(CCC(F)(F)C(F)(F)F)S(=O)(=O)CCC(F)(F)F (stereo not drawn) [(59)] | ≥ 70 | ≥ 90 | 100 | – | – | – |
| N#CC(CCC(F)(F)F)S(=O)(=O)CCC(F)(F)C(F)(F)F (stereo not drawn) [(53)] | ≥ 70 | ≥ 90 | 100 | – | – | – |
| COC(=O)C(Cl)(CCC(F)(F)C(F)(F)C(F)(F)C(F)(F)F)S(=O)(=O)CCC(F)(F)F (stereo not drawn) [(86)] | – | – | – | ≥ 70 | ≥ 90 | 100 |
| CC(C#N)(CCC(F)(F)C(F)(F)F)[S+]([O-])CCC(F)(F)F (stereo not drawn) [(57)] | ≥ 70 | ≥ 90 | 100 | – | – | – |
| COC(=O)C(Cl)(CCCC(F)(F)C(F)(F)F)S(=O)(=O)CCC(F)(F)F (stereo not drawn) [(102)] | ≥ 70 | ≥ 90 | 100 | – | – | – |
| N#CC(Cl)(CCC(F)(F)C(F)(F)F)S(=O)(=O)CCC(F)(F)F (stereo not drawn) [(21)] | ≥ 70 | ≥ 90 | 100 | – | – | – |
| CC(CCC(F)(F)C(F)(F)C(F)(F)F)(C(N)=O)S(=O)(=O)CCC(F)(F)C(F)(F)F (stereo not drawn) [(56)] | – | – | – | ≥ 70 | ≥ 90 | 100 |
| CCC(CCC(F)(F)C(F)(F)F)(C(N)=O)S(=O)(=O)CCC(F)(F)F (stereo not drawn) [(38)] | ≥ 70 | ≥ 90 | 100 | – | – | – |
| CN(C)C(=O)C(C)(CCC(F)(F)C(F)(F)F)S(=O)(=O)CCC(F)(F)F (stereo not drawn) [(36)] | ≥ 70 | ≥ 90 | 100 | – | – | – |
| NC(=O)C(F)(CCC(F)(F)C(F)(F)C(F)(F)F)S(=O)(=O)CCC(F)(F)F (stereo not drawn) [(91)] | – | – | – | ≥ 70 | ≥ 90 | 100 |
| CC(C#N)(CCC(F)(F)C(F)(F)F)S(=O)(=O)CCC(F)(F)C(F)(F)C(F)(F)F (stereo not drawn) [(14)] | – | – | – | ≥ 70 | ≥ 90 | 100 |
| N#CC(CC(F)(F)C(F)(F)C(F)(F)F)S(=O)(=O)CCC(F)(F)C(F)(F)F (stereo not drawn) [(9)] | – | – | – | ≥ 70 | ≥ 90 | 100 |
| CNC(=O)C(CCC(F)(F)C(F)(F)F)S(=O)(=O)CCC(F)(F)F (stereo not drawn) [(32)] | ≥ 70 | ≥ 90 | 100 | – | – | – |
| COC(=O)C(F)(CCC(F)(F)C(F)(F)F)S(=O)(=O)CCC(F)(F)C(F)(F)F (stereo not drawn) [(72)] | ≥ 70 | ≥ 90 | 100 | – | – | – |
| N#CC(CC(F)(F)C(F)(F)F)S(=O)(=O)CCC(F)(F)F (stereo not drawn) [(2)] | ≥ 70 | ≥ 90 | 100 | – | – | – |
| CC(CCC(F)(F)C(F)(F)F)(C(N)=O)S(=O)(=O)CCC(F)(F)F (stereo not drawn) [(34)] | ≥ 70 | ≥ 90 | 100 | – | – | – |
| COC(=O)C(F)(CCC(F)(F)C(F)(F)C(F)(F)F)S(=O)(=O)CCC(F)(F)F (stereo not drawn) [(90)] | – | – | – | ≥ 70 | ≥ 90 | 100 |
| NC(=O)C(Cl)(CCCCC(F)(F)F)S(=O)(=O)CCC(F)(F)F (stereo not drawn) [(100)] | ≥ 70 | ≥ 90 | 100 | – | – | – |
| CNC(=O)C(C)(CCC(F)(F)C(F)(F)F)S(=O)(=O)CCC(F)(F)F (stereo not drawn) [(35)] | ≥ 70 | ≥ 90 | 100 | – | – | – |
| NC(=O)C(Cl)(CCC(F)(F)F)S(=O)(=O)CCC(F)(F)C(F)(F)F (stereo not drawn) [(94)] | ≥ 70 | ≥ 90 | 100 | – | – | – |
| CC(C#N)(CC(F)(F)C(F)(F)C(F)(F)F)S(=O)(=O)CCC(F)(F)F (stereo not drawn) [(12)] | – | – | – | ≥ 70 | ≥ 90 | 100 |
| N#CC(CCC(F)(F)C(F)(F)F)S(=O)(=O)CCC(F)(F)F (stereo not drawn) [(3)] | ≥ 70 | ≥ 90 | 100 | – | – | – |
| CCCC(C#N)(CCC(F)(F)C(F)(F)F)S(=O)(=O)CCC(F)(F)F (stereo not drawn) [(16)] | ≥ 70 | ≥ 90 | 100 | – | – | – |
| COC(=O)C(CCC(F)(F)C(F)(F)F)[S+]([O-])CCC(F)(F)F (stereo not drawn) [(63)] | ≥ 70 | ≥ 90 | 100 | – | – | – |
| N#CC(CCC(F)(F)C(F)(F)F)S(=O)(=O)CCC(F)(F)C(F)(F)C(F)(F)F (stereo not drawn) [(10)] | – | – | – | ≥ 70 | ≥ 90 | 100 |
| CCCNC(=O)C(C)(CCC(F)(F)C(F)(F)F)S(=O)(=O)CCC(F)(F)F (stereo not drawn) [(40)] | ≥ 70 | ≥ 90 | 100 | – | – | – |
| NC(=O)C(CCC(F)(F)C(F)(F)F)S(=O)(=O)CCC(F)(F)F (stereo not drawn) [(31)] | ≥ 70 | ≥ 90 | 100 | – | – | – |
